Results taken from patent US4036696A, “Preparation of antibiotics by fermentation” (priority 1976, dated 1977).
Counter-ions that a name gives are not always drawn. Like-named read-outs stand apart in the source and are kept apart here.

Assays:
[1] = system: Alcaligenes viscosus (MB-12); conditions: organism known to inactivate; cited from earlier work
[2] = system: Aerobacter cloacae (MB-2646); test: inactivation by cell-free filtrate; type: biochemical; conditions: for Antibiotic Activity Remaining: starting concentration 250 μg./ml.
Experimental: The ability of Antibiotic 810A and cephalosporin C to withstand the degradative effect of the culture Aerobacter cloacae (MB-2646) was also determined. This culture is gram-negative and resistant to cephalosporin C. […] The source of the inactivating substance is a 1:160 dilution of the filtrate of an 18 hour 37° C. shake culture of Aerobacter cloacae MB-2646 in nutrient broth containing 0.2% yeast extract. Table XIV, infra, indicates the percent inactivation of Antibiotic 810A, cephalothin, cephaloridine and cephalosporin C on Vibrio percolans (MB-1272) via this method:
Using the same assay procedure as described above, Table XV, infra, indicates the relative resistance of Antibiotic 810A to enzymatic inactivation by Aerobacter cloacae. The starting concentration in 250 μg./ml. Results are expressed in μg./ml.

[3] = system: Alcaligenes viscosus (MB-12); test: bacterial inactivation by washed cells; conditions: 4 hour incubation; assayed on B. subtilis (MB-964)
[4] = system: Alcaligenes faecalis (MB-9); conditions: organism known to inactivate; cited from earlier work
Proteus morganii 356 [5] = test: bacterial inactivation; conditions: 4 hours incubation; assayed on B. subtilis (MB-964)
Experimental: (§1) These cultures are: Escherichia coli 236, Proteus morganii 251, Proteus morganii 356 and Proteus mirabilis 241. […] In conducting the assay, individual mixtures of the organisms and one of the antibiotics were sampled after 4 hours incubation and assayed for residual antibiotic activity. The procedure is the same assay method as described above against Alcaligenes faecalis MB-9 and A. viscosus MB-12.

Escherichia coli 236 = test: bacterial inactivation; conditions: 4 hours incubation; assayed on B. subtilis (MB-964)
Experimental: as §1

Proteus mirabilis 241 = test: bacterial inactivation; conditions: 4 hours incubation; assayed on B. subtilis (MB-964)
Experimental: as §1

Proteus morganii 251 = test: bacterial inactivation; conditions: 4 hours incubation; assayed on B. subtilis (MB-964)
Experimental: as §1

[6] = system: Alcaligenes faecalis (MB-9); test: bacterial inactivation by washed cells
[7] = system: gram-negative and gram-positive bacteria; conditions: background statement, cited from earlier work
cephalosporinases = conditions: background statement; cited from earlier work
penicillinase = conditions: background statement; cited from earlier work
Proteus morganii 356 [8] = test: mouse protection test, clinical isolate; type: in vivo, mice; conditions: subcutaneous route × 2 doses (average of two trials)
Experimental: (§2) Methods: The method employed in this characterization is as follows: Female white Swiss mice, average weight 20-23 grams, were infected intraperitoneally with 3-20 times the number of organisms calculated to be lethal for 50% of the infected control animals (3-20 LD50 doses). At the time of infection and again 6 hours later, therapy was given by the designated route. Controls of the virulence of the culture and the toxicity of the antibiotic for uninfected mice were included in the tests. Seven days after infection the test was considered complete and the amount of the antibiotic (I) that would be required to protect 50% of the infected and treated animals was calculated by the method of Knudsen and Curtis: J. Amer. Stat. Assoc. Vol. 42: page 282 (1947).
Administration was by subcutaneous injection. At the completion of the test period, usually 7 days after administration, the amount of product required to protect 50% of the mice (ED50) from this otherwise fatal injection was calculated:
In addition to the aforementioned in vivo trials of the product, a clinical isolate of Proteus morganii 356 which is resistant to cephalosporins and capable of degrading cephalosporin C, was employed in a mouse protection test performed in the same manner as reported above.

Proteus morganii 3202 = test: in vivo protection of infected mice; conditions: subcutaneous; 4000 mg. × 2 doses (so in the source)
Experimental: as §2
The method employed in these studies is the same as described above with regard to the in vivo characterization of 810A. The results of these tests are described below in Table XIb:
Administration was by subcutaneous injection. At the completion of the test period, usually 7 days after administration, the amount of product required to protect 50% of the mice (ED50) from this otherwise fatal injection was calculated: […]

[9] = system: Vibrio percolans (MB-1272); test: disc-plate assay using Vibrio percolans; conditions: Comamonas terrigena, read-out: concentration giving a 25 mm. zone, Example 11 concentrate at a dilution of 1:100
[10] = system: Alcaligenes faecalis (MB-9); conditions: 3 h
[11] = 2 hour incubation, assayed on V. percolans (MB-1272)
[12] = 2 hour incubation, assay organism B. subtilis 964
[13] = 2 hour incubation, assay organism V. percolans 1272

## CC(=O)OCC1=C(C(=O)O)N2C(=O)[C@@H](NC(=O)CCC[C@@H](N)C(=O)O)[C@H]2SC1 [Cephalosporin C]
[1]
  inactivation of cephalosporin C: completely inactivate
[2]; [11]
  Percent Inactivation After Incubation With Cell-Free Extract: 96%
[3]
  Percent Inactivation After Incubation With Washed Bacterial Cells: > 99%
[4]
  inactivation of cephalosporin C: completely inactivate
Proteus morganii 356 [5]
  percent inactivation: > 99%
Escherichia coli 236
  percent inactivation: > 99%
Proteus mirabilis 241
  percent inactivation: 72%
Proteus morganii 251
  percent inactivation: > 99%
[6]; 3 hour incubation, assayed on B. subtilis (MB-964), 4 mg./ml.
  Percent Inactivation After Incubation With Washed Bacterial Cells: > 99%
[6]; 3 hour incubation, assayed on V. percolans (MB-1272)
  Percent Inactivation After Incubation With Washed Bacterial Cells: > 99%
[6]; 4 hour incubation, assayed on B. subtilis (MB-964)
  Percent Inactivation After Incubation With Washed Bacterial Cells: > 99%
[7]
  antibacterial activity: only moderately active
[7]; listed as cephalosporin C
  antibacterial activity: relatively low antibacterial activity
cephalosporinases
  behaviour toward cephalosporinases: effective in destroying its activity
penicillinase
  behaviour toward penicillinase: inherent resistance to penicillinase

## O=C(Cc1cccs1)N[C@@H]1C(=O)N2C(C(=O)[O-])=C(C[n+]3ccccc3)CS[C@H]12 [Cephaloridine]
[2]; aerobacter cloacae culture filtrate, 2 h
  Percent Inactivation After Incubation With Cell-Free Extract: 96%
[2]; [12]
  Antibiotic Activity Remaining: < 10 µg/mL
[2]; [13]
  Antibiotic Activity Remaining: < 10 µg/mL
Proteus morganii 356 [8]
  ED50: 9,270 μg.
Proteus morganii 3202
  protection of infected mice: failed to protect

## CO[C@@]1(NC(=O)CCC[C@@H](N)C(=O)O)C(=O)N2C(C(=O)O)=C(COC(N)=O)CS[C@@H]21 [Sodium Salt]
[9]
  IC (25 mm zone): 400 µg/mL

## CC(=O)OCC1=C(C(=O)O)N2C(=O)[C@@H](NC(=O)Cc3cccs3)[C@H]2SC1 [Cephalothin]
[10]
  Percent Inactivation After Incubation With Washed Bacterial Cells: 50%
[2]; [11]
  Percent Inactivation After Incubation With Cell-Free Extract: 66%
[2]; [12]
  Antibiotic Activity Remaining: 140 µg/mL
[2]; [13]
  Antibiotic Activity Remaining: 85 µg/mL
Proteus morganii 356 [8]
  ED50: > 20,000 μg.
Proteus morganii 3202
  protection of infected mice: failed to protect

## CC1(C)S[C@@H]2[C@H](NC(=O)Cc3ccccc3)C(=O)N2[C@H]1C(=O)O [Penicillin G]
penicillinase
  behaviour toward penicillinase: degraded to a form which is ineffective against most pathogens
